Reference: US6608082B1, “Treatment of erectile dysfunction using isoquinoline compound melanocortin receptor ligands” (Lion Bioscience AG, priority 1998, dated 2003)

Columns and labels:
[1] = biological target: T1, MCR-1 (Homo sapiens, UniProt Q01726); test: Melanocortin receptor binding assay, competition with 125I-HP 467, HEK 293 cells expressing hMCR-1; details: inhibition of binding of 125I-HP 467, HEK 293 cells expressing MCR-1; read-out: MC-1 IC50
T1 construct: expressed in transfected cells; host or cells: HEK 293
Method in brief: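 Test compounds compete on intact HEK 293 cells carrying hMCR-1 (2×10^4 per tube) or hMCR-4 (4×10^3 per tube), suspended in PBS, 10% calf serum, 1 mM CaCl2.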

[2] = biological target: T2, MCR-4 (Homo sapiens, UniProt P32245); test: Melanocortin receptor binding assay, competition with 125I-HP 467, HEK 293 cells expressing hMCR-4; details: inhibition of binding of 125I-HP 467, HEK 293 cells expressing MCR-4, TRG 2414 library; for IC50: read-out: MC-4 IC50
T2 construct: expressed in transfected cells; host or cells: HEK 293
Protocol: All cell culture media and reagents were obtained from GibcoBRL (Gaithersburg Md.), except for COSMIC CALF SERUM (HyClone; Logan Utah).
Cells were suspended in PBS, 10% COSMIC CALF SERUM and 1 mM CaCl2. Cell suspensions were prepared at a density of 2×10^4 cells/ml for HEK 293 cells expressing hMCR-3, hMCR-4 or hMCR-5, and 1×10^5 cells/ml for HEK 293 cells expressing hMCR-1. Suspensions were placed in a water bath and allowed to warm to 37° C. for 1 hr.
Binding assays were performed in a total volume of 250 μl for HEK 293 cells. […] To each tube was added 4×10^3 HEK 293 cells expressing hMCR-3, hMCR-4 or hMCR-5, or 2×10^4 cells expressing hMCR-1. Assays were incubated for 2.5 hr at 37° C.
GF/B filter plates were prepared by soaking for at least one hour in 5 mg/ml BSA and 10 mM CaCl2. Assays were filtered using a Brandel 96-well cell harvester (Brandel Inc.; Gaithersburg, Md.). The filters were washed four times with cold 50 mM Tris, pH 7.4, the filter plates were dehydrated for 2 hr and 35 μl of MICROSCINT was added to each well. Filter plates were counted using a Packard Topcount (Packard Instrument Co.) and data analyzed using GraphPad PRISM v2.0 (GraphPad Software Inc.; San Diego Calif.) and Microsoft EXCEL v5.0a (Microsoft Corp.; Redmond Wash.).
To assay isoquinoline compounds, binding assays were performed in duplicate in a 96 well format. […] A 0.2 ml aliquot of suspended cells was added to each well to give the cell numbers indicate above, and the cells were incubated at 37° C. for 2.5 hr. Cells were harvested on GF/B filter plates as described above and counted.

T2 sequence (P32245 whole entry): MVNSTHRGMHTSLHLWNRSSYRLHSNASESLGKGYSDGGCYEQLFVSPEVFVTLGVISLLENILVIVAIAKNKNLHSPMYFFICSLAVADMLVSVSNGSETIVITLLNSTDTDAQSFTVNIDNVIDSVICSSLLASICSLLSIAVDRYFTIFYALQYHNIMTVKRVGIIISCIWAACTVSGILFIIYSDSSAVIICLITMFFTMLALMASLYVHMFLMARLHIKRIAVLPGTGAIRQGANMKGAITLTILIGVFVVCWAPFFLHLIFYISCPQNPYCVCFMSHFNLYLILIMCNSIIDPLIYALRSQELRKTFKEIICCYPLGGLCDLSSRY
T1 sequence (Q01726 whole entry): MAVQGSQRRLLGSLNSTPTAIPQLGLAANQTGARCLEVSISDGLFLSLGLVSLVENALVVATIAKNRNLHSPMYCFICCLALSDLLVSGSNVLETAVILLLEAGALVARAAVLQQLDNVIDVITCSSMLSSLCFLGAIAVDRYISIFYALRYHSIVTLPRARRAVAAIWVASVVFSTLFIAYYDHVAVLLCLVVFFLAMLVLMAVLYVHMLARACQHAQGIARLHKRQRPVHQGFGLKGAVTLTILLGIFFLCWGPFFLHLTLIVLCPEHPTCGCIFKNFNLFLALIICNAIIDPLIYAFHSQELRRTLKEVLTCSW

Compound | IC50 [1] | also measured
CCCCOc1ccc(C2C(CNCCc3ccccc3)c3ccccc3CN2CCCC(CN)NCCc2ccccc2)cc1 (centres unmarked) [TRG 2412-26] | 200 nM | 
CCCCOc1ccc(C2C(CNCCc3ccccc3)c3ccccc3CN2CCCC(CN)NCc2ccccc2)cc1 (centres unmarked) [TRG 2412-27] | 250 nM | 
CCCCCc1ccc(C2C(CNCCc3ccccc3)c3ccccc3CN2CCCC(CN)NCCc2ccccc2)cc1 (centres unmarked) [TRG 2412-29] | 500 nM | 
CNCCNC(CN)CCCCN1Cc2ccccc2C(CNCCc2ccccc2)C1c1ccc(-c2ccccc2)cc1 (centres unmarked) [TRG 2413-1] | 440 nM | 
CCNc1ccc(C2C(CNCCc3ccccc3)c3ccccc3CN2CCCCC(CN)NCCNC)cc1 (centres unmarked) [TRG 2413-4] | 340 nM | 
CCNc1ccc(C2C(CNC3CCCCC3)c3ccccc3CN2CCCC(CN)NCCc2ccccc2)cc1 (centres unmarked) [TRG 2413-10] | 310 nM | 
NCC(N)CCCCN1Cc2ccccc2C(CNCc2ccccc2C(F)(F)F)C1c1ccc(Cl)cc1Cl (centres unmarked) [TRG 2414-1] |  | IC50 [2]: 7590 nM
NCC(CCCCN1Cc2ccccc2C(CNCc2ccccc2C(F)(F)F)C1c1ccc(Cl)cc1Cl)NCCc1ccccc1 (centres unmarked) [TRG 2414-2] |  | IC50 [2]: 29300 nM
CC(C)Cc1ccc(C(C)CNC(CN)CCCCN2Cc3ccccc3C(CNCc3ccccc3C(F)(F)F)C2c2ccc(Cl)cc2Cl)cc1 (centres unmarked) [TRG 2414-4] |  | MC-4 IC50 [2]: no fit
CCOc1ccccc1CNCC1c2ccccc2CN(CCCCC(N)CN)C1c1ccc(Cl)cc1Cl (centres unmarked) [TRG 2414-5] |  | IC50 [2]: 480 nM
CCOc1ccccc1CNCC1c2ccccc2CN(CCCCC(CN)NCCc2ccccc2)C1c1ccc(Cl)cc1Cl (centres unmarked) [TRG 2414-6] |  | IC50 [2]: 5540 nM
CCOc1ccccc1CNCC1c2ccccc2CN(CCCCC(CN)NCc2ccccc2)C1c1ccc(Cl)cc1Cl (centres unmarked) [TRG 2414-7] |  | IC50 [2]: 4560 nM
CCOc1ccccc1CNCC1c2ccccc2CN(CCCCC(CN)NCC(C)c2ccc(CC(C)C)cc2)C1c1ccc(Cl)cc1Cl (centres unmarked) [TRG 2414-8] |  | IC50 [2]: 13800 nM
NCC(CCCCN1Cc2ccccc2C(CNCCc2ccc(Oc3ccccc3)cc2)C1c1cc(C(F)(F)F)cc(C(F)(F)F)c1)NCc1ccc(Br)cc1 (centres unmarked) [TRG 2421-28] | 15700 nM | 
NCC(CCCCN1Cc2ccccc2C(CNCCc2ccc(Oc3ccccc3)cc2)C1c1cc(C(F)(F)F)cc(C(F)(F)F)c1)NCc1ccc(-c2ccccc2)cc1 (centres unmarked) [TRG 2421-30] | 36400 nM | 

Now from value to compound, other results behind:

IC50 [1] | Compound | also measured
270 nM | CCCCCc1ccc(C2C(CNCCc3ccccc3)c3ccccc3CN2CCCC(CN)NC)cc1 (centres unmarked) [TRG 2412-28] | 
540 nM | CNCCNC(CN)CCCCN1Cc2ccccc2C(CN)C1c1ccc(-c2ccccc2)cc1 (centres unmarked) [TRG 2413-2] | 
1560 nM | CCNc1ccc(C2C(CN)c3ccccc3CN2CCCCC(CN)NCCNC)cc1 (centres unmarked) [TRG 2413-3] | 
6510 nM | CNC(CN)CCCCN1Cc2ccccc2C(CN)C1c1ccc([N+](=O)[O-])cc1 (centres unmarked) [TRG 2413-6] | 
1540 nM | NCCNC(CN)CCCN1Cc2ccccc2C(CN)C1c1ccc(-c2ccccc2)cc1 (centres unmarked) [TRG 2413-7] | 
1840 nM | CNC(CN)CCCN1Cc2ccccc2C(CN)C1c1ccc(-c2ccccc2)cc1 (centres unmarked) [TRG 2413-8] | 
130 nM | CCNc1ccc(C2C(CN)c3ccccc3CN2CCCC(CN)NCCc2ccccc2)cc1 (centres unmarked) [TRG 2413-11] | 
190 nM | CCNc1ccc(C2C(CNCCc3ccccc3)c3ccccc3CN2CCCC(CN)NC)cc1 (centres unmarked) [TRG 2413-12] | 
1070 nM | NCC(CCCN1Cc2ccccc2C(CNCCc2ccccc2)C1c1ccc([N+](=O)[O-])cc1)NCCc1ccccc1 (centres unmarked) [TRG 2413-13] | 
1570 nM | NCC(CCCN1Cc2ccccc2C(CNC2CCCCC2)C1c1ccc([N+](=O)[O-])cc1)NCCc1ccccc1 (centres unmarked) [TRG 2413-14] | 
1920 nM | NCC(CCCN1Cc2ccccc2C(CN)C1c1ccc([N+](=O)[O-])cc1)NCCc1ccccc1 (centres unmarked) [TRG 2413-15] | 
